Assay results: patent US10358434B2, “2-(3-pyridinyl)-1H-benzimidazole derivative compound and medicament containing same” (NIHON MEDI-PHYSICS CO., LTD., priority 2014, dated 2019)

Key:
[1] = system: human adrenal gland section expressing aldosterone-producing adenoma; assay: In vitro autoradiography using human adrenal adenoma; type: binding
From the text: From adrenal gland excised from a human patient for treatment of primary aldosteronism, a portion containing aldosterone-producing adenoma was removed and was then frozen. The frozen adrenal gland was embedded in an embedding agent for production of a frozen tissue section (Tissue-Tek O.C.T. Compound, Sakura Finetek Japan). Using a freezing microtome (CM3050S, Leica Microsystems), a 7-μm thin slice section, which is schematically shown in FIGS. 17(a) and 17(b), was produced, and was preserved at −20° C. before use. In FIGS. 17, 71a and 71b indicate aldosterone-producing adenomas, 72a and 72b indicate normal adrenal cortexes, and 73a and 73b indicate normal adrenal medullas. A 5-33 kBq/mL solution was prepared by adding a suitable amount of each of Compounds [^18F] 100, [^18F] 200, [^123I] 400, [^18F] 500, and [^123I] 601 to [^123I] 610, which were obtained by the methods described in Examples 2, 4, 7, 9, 11, 13, 15, 17, 19, 21, 23, 25, 27, and 29, or [^123I] IMTO to a phosphate-buffered physiological saline containing 1 w/v % bovine serum albumin (not containing fatty acid). The radioactivity concentration was measured using an autowell gamma system (ARC-7001, manufactured by Hitachi Aloka Medical, Ltd.). The section was immersed in the obtained sample solution for 10 minutes. For Compounds [^18F] 100, [^18F] 200, [^123I] 400, [^18F] 500, [^123I] 601 and [^123I] 602, the section shown in FIG. 17(a) was used, and for Compounds […] [^123I] IMTO, both sections shown in FIGS. 17(a) and (b) were used. Each sample solution was washed off, and the section was then exposed to an imaging plate (BAS-SR2040, manufactured by FUJIFILM Holdings Corporation) (IP) for 16-20 hours, and thereafter, an autoradiogram was obtained using a fluoro-image analyzer (FLA-7000, manufactured by FUJIFILM Holdings Corporation).
In order to quantitatively compare differences between images caused by ^123I and ^18F nuclides, a correction was made by calculating accumulation of radioactivity within the range of a region of interest (ROI) by means of integral calculation based on half-life, added radioactivity and IP contact time.
610. FIG. 18(b), FIG. 19(b), FIG. 20(b), FIG. 21(b), FIG. 22(a), FIG. 23(a), FIG. 24(a), FIG. 25(a), FIG. 26(a), FIG. 27(a), FIG. 28(a), FIG. 29(a), FIG. 30(a), and FIG. 31(a) each show an autoradiogram of [^123I] IMTO. […] 100, [^18F] 200, [^123I] 400, [^18F] 500, and [^123I] 601 to [^123I] […] The ROI having the same area as each other was established in a normal site and in a site in which aldosterone-producing adenoma had developed. Then, the PSL value (B1) indicating accumulation of radioactivity in the sites of normal adrenal cortexes 72a and 72b was compared with the PSL value (B2) indicating accumulation of radioactivity in the sites of aldosterone-producing adenomas 71a and 71b. In Table 7, the B1, B2 and B2/B1 values of [^18F] 100 indicate the mean values for the number of tests (n), respectively.

[2] = In vivo kinetics experiment (radioactivity distribution); set-up: species or system Wistar male rat; details: rat; for Adrenal gland/blood ratio of radioactivity accumulation / Adrenal gland/fat ratio of radioactivity accumulation / Adrenal gland/kidney ratio of radioactivity accumulation / Adrenal gland/liver ratio of radioactivity accumulation / Adrenal gland/muscle ratio of radioactivity accumulation / Adrenal gland/small intestine ratio of radioactivity accumulation / Radioactivity distribution Adrenal gland / Radioactivity distribution Bladder (including urine) / Radioactivity distribution Blood / Radioactivity distribution Fat / Radioactivity distribution Femur / Radioactivity distribution Heart / Radioactivity distribution Kidney / Radioactivity distribution Large intestine / Radioactivity distribution Liver / Radioactivity distribution Lung / Radioactivity distribution Muscle (lower limbs) / Radioactivity distribution Remaining whole body / Radioactivity distribution Small intestine / Radioactivity distribution Spleen / Radioactivity distribution Stomach / Radioactivity distribution Testis / Radioactivity distribution Whole brain: caudal vein
Procedure: Each of Compounds [^18F] 100, [^18F] 200, [^123I] 400, [^18F] 500, and [^123I] 601 to 610 obtained by the methods described in Examples 2, 4, 7, 9, 11, 13, 15, 17, 19, 21, 23, 25, 27, and 29, or [^123I] IMTO, was diluted with a physiological saline containing 1 w/v % ascorbic acid to prepare a solution to be administered. The above described compound (approximately 1 to 3.7 MBq) was injected into the caudal vein of a Wistar male rat (9 weeks old) under anesthesia with a mixed gas of isoflurane/air, and ten minutes after the injection, the rat was sacrificed by exsanguination. From the thus sacrificed rat, blood and organs (heart, lung, stomach, liver, spleen, small intestine, large intestine, kidney, bladder (including urine), muscle (lower limbs), brain, adrenal gland, testis, fat, femur, or thyroid gland) were excised, and the weights thereof were then measured. Thereafter, radioactivity was measured in the blood, the individual excised organs, and the remaining whole body. Further, 30 and 60 minutes after the administration, the same operations as those described above were carried out. […] The symbol “n” in Tables 9 to 23 indicates the number of rats used. In addition, Tables 9 to 23 also show the ratio of radioactivity accumulation in adrenal grand (% ID/g) to radioactivity accumulation in each of blood, liver, kidney, small intestine, muscle and fat (% ID/g).

[3] = Plasma stability evaluation (TLC analysis); type: in vitro ADME; details: 37° C., 60 minutes
Procedure: Evaluation was made using a heparin-treated normal human plasma pool (Kohjin Bio Co., Ltd.). Compounds [^18F] 100, [^18F] 200, [^123I] 400, [^18F] 500, and [^123I] 601 to 610 obtained by the methods shown in Examples 2, 4, 7, 9, 11, 13, 15, 17, 19, 21, 23, 25, 27, and 29 were each added to the aforementioned human plasma (5 mL), and the obtained mixture was then incubated at 37° C. for 60 minutes. Thereafter, the mixture was centrifuged with addition of methanol, so that a deproteinization treatment was carried out. Thereafter, stability was evaluated by TLC analysis. As TLC analysis conditions, the TLC analysis conditions applied upon the above described synthesis of each compound were applied.

Structure (SMILES): Fc1cc2nc(-c3cncc(Cn4ccnc4)c3)n(CC[18F])c2cc1Cl [[^18F] 100, 6-Chloro-5-fluoro-1-(2-[^18F]fluoroethyl)-2-[5-(imidazol-1-ylmethyl)pyridin-3-yl]benzimidazole]
- accumulation of radioactivity in adrenal gland section (autoradiogram) ([1]; FIGS. 18 to 31): accumulation of radioactivity was selectively observed in a region in which aldosterone-producing adenoma had been pathologically observed
- B2/B1 accumulation ratio ([1]; section of FIG. 17(a)): 5.08
- B2 (PSL value, aldosterone-producing adenoma) ([1]; section of FIG. 17(a), site 71a): 16480
- B1 (PSL value, normal adrenal cortex) ([1]; section of FIG. 17(a), site 72a): 3241
- accumulation of radioactivity in adrenal gland vs blood and peripheral tissues ([2]; Tables 9 to 22): high accumulation of radioactivity in adrenal gland was observed, in comparison to in blood and peripheral tissues
- Adrenal gland/blood ratio of radioactivity accumulation ([2]; 10 min after administration): 137.96 ± 52.72
- Adrenal gland/fat ratio of radioactivity accumulation ([2]; 10 min after administration): 141.33 ± 57.27
- Adrenal gland/kidney ratio of radioactivity accumulation ([2]; 10 min after administration): 6.14 ± 2.01
- Adrenal gland/liver ratio of radioactivity accumulation ([2]; 10 min after administration): 1.93 ± 0.69
- Adrenal gland/muscle ratio of radioactivity accumulation ([2]; 10 min after administration): 63.25 ± 34.56
- Adrenal gland/small intestine ratio of radioactivity accumulation ([2]; 10 min after administration): 9.89 ± 2.73
- Radioactivity distribution Adrenal gland ([2]; 10 min after administration): 10.19 ± 3.35 % ID/g
- Radioactivity distribution Bladder (including urine) ([2]; 10 min after administration): 0.22 ± 0.08 % ID/g
- Radioactivity distribution Blood ([2]; 10 min after administration): 0.08 ± 0.01 % ID/g
- Radioactivity distribution Fat ([2]; 10 min after administration): 0.08 ± 0.02 % ID/g
- Radioactivity distribution Femur ([2]; 10 min after administration): 0.63 ± 0.08 % ID/g
- Radioactivity distribution Heart ([2]; 10 min after administration): 0.32 ± 0.08 % ID/g
- Radioactivity distribution Kidney ([2]; 10 min after administration): 1.70 ± 0.40 % ID/g
- Radioactivity distribution Large intestine ([2]; 10 min after administration): 0.15 ± 0.02 % ID/g
- Radioactivity distribution Liver ([2]; 10 min after administration): 5.39 ± 0.99 % ID/g
- Radioactivity distribution Lung ([2]; 10 min after administration): 0.63 ± 0.08 % ID/g
- Radioactivity distribution Muscle (lower limbs) ([2]; 10 min after administration): 0.23 ± 0.24 % ID/g
- Radioactivity distribution Remaining whole body ([2]; 10 min after administration): 0.22 ± 0.03 % ID/g
- Radioactivity distribution Small intestine ([2]; 10 min after administration): 1.03 ± 0.14 % ID/g
- Radioactivity distribution Spleen ([2]; 10 min after administration): 3.85 ± 0.65 % ID/g
- Radioactivity distribution Stomach ([2]; 10 min after administration): 0.56 ± 0.17 % ID/g
- Radioactivity distribution Testis ([2]; 10 min after administration): 0.05 ± 0.01 % ID/g
- Radioactivity distribution Whole brain ([2]; 10 min after administration): 0.01 ± 0.00 % ID/g
- Adrenal gland/blood ratio of radioactivity accumulation ([2]; 30 min after administration): 249.08 ± 51.81
- Adrenal gland/fat ratio of radioactivity accumulation ([2]; 30 min after administration): 352.33 ± 208.06
- Adrenal gland/kidney ratio of radioactivity accumulation ([2]; 30 min after administration): 18.18 ± 4.58
- Adrenal gland/liver ratio of radioactivity accumulation ([2]; 30 min after administration): 3.58 ± 0.82
- Adrenal gland/muscle ratio of radioactivity accumulation ([2]; 30 min after administration): 179.35 ± 63.77
- Adrenal gland/small intestine ratio of radioactivity accumulation ([2]; 30 min after administration): 11.12 ± 2.64
- Radioactivity distribution Adrenal gland ([2]; 30 min after administration): 19.61 ± 4.29 % ID/g
- Radioactivity distribution Bladder (including urine) ([2]; 30 min after administration): 1.17 ± 0.77 % ID/g
- Radioactivity distribution Blood ([2]; 30 min after administration): 0.08 ± 0.01 % ID/g
- Radioactivity distribution Fat ([2]; 30 min after administration): 0.07 ± 0.02 % ID/g
- Radioactivity distribution Femur ([2]; 30 min after administration): 0.71 ± 0.18 % ID/g
- Radioactivity distribution Heart ([2]; 30 min after administration): 0.27 ± 0.06 % ID/g
- Radioactivity distribution Kidney ([2]; 30 min after administration): 1.10 ± 0.16 % ID/g
- Radioactivity distribution Large intestine ([2]; 30 min after administration): 0.20 ± 0.02 % ID/g
- Radioactivity distribution Liver ([2]; 30 min after administration): 5.55 ± 0.80 % ID/g
- Radioactivity distribution Lung ([2]; 30 min after administration): 0.43 ± 0.07 % ID/g
- Radioactivity distribution Muscle (lower limbs) ([2]; 30 min after administration): 0.12 ± 0.03 % ID/g
- Radioactivity distribution Remaining whole body ([2]; 30 min after administration): 0.18 ± 0.03 % ID/g
- Radioactivity distribution Small intestine ([2]; 30 min after administration): 1.78 ± 0.21 % ID/g
- Radioactivity distribution Spleen ([2]; 30 min after administration): 4.57 ± 1.32 % ID/g
- Radioactivity distribution Stomach ([2]; 30 min after administration): 0.73 ± 0.11 % ID/g
- Radioactivity distribution Testis ([2]; 30 min after administration): 0.06 ± 0.01 % ID/g
- Radioactivity distribution Whole brain ([2]; 30 min after administration): 0.01 ± 0.00 % ID/g
- Adrenal gland/blood ratio of radioactivity accumulation ([2]; 60 min after administration): 247.32 ± 64.42
- Adrenal gland/fat ratio of radioactivity accumulation ([2]; 60 min after administration): 397.01 ± 160.35
- Adrenal gland/kidney ratio of radioactivity accumulation ([2]; 60 min after administration): 18.96 ± 4.83
- Adrenal gland/liver ratio of radioactivity accumulation ([2]; 60 min after administration): 5.20 ± 1.19
- Adrenal gland/muscle ratio of radioactivity accumulation ([2]; 60 min after administration): 236.89 ± 62.76
- Adrenal gland/small intestine ratio of radioactivity accumulation ([2]; 60 min after administration): 7.66 ± 2.34
- Radioactivity distribution Adrenal gland ([2]; 60 min after administration): 21.34 ± 5.24 % ID/g
- Radioactivity distribution Bladder (including urine) ([2]; 60 min after administration): 2.41 ± 0.97 % ID/g
- Radioactivity distribution Blood ([2]; 60 min after administration): 0.09 ± 0.01 % ID/g
- Radioactivity distribution Fat ([2]; 60 min after administration): 0.06 ± 0.03 % ID/g
- Radioactivity distribution Femur ([2]; 60 min after administration): 0.77 ± 0.13 % ID/g
- Radioactivity distribution Heart ([2]; 60 min after administration): 0.26 ± 0.03 % ID/g
- Radioactivity distribution Kidney ([2]; 60 min after administration): 1.13 ± 0.17 % ID/g
- Radioactivity distribution Large intestine ([2]; 60 min after administration): 0.38 ± 0.22 % ID/g
- Radioactivity distribution Liver ([2]; 60 min after administration): 4.11 ± 0.66 % ID/g
- Radioactivity distribution Lung ([2]; 60 min after administration): 0.45 ± 0.05 % ID/g
- Radioactivity distribution Muscle (lower limbs) ([2]; 60 min after administration): 0.09 ± 0.01 % ID/g
- Radioactivity distribution Remaining whole body ([2]; 60 min after administration): 0.18 ± 0.02 % ID/g
- Radioactivity distribution Small intestine ([2]; 60 min after administration): 2.85 ± 0.37 % ID/g
- Radioactivity distribution Spleen ([2]; 60 min after administration): 4.40 ± 1.15 % ID/g
- Radioactivity distribution Stomach ([2]; 60 min after administration): 1.02 ± 0.19 % ID/g
- Radioactivity distribution Testis ([2]; 60 min after administration): 0.08 ± 0.01 % ID/g
- Radioactivity distribution Whole brain ([2]; 60 min after administration): 0.02 ± 0.00 % ID/g
- stability in human plasma [3]: hardly metabolized and decomposed in the plasma
- Radiochemical purity after incubation in human plasma ([3]; TLC analysis): 97%
